Reference: ChEMBL document CHEMBL1165917, “Synthesis and NMDA receptor affinity of fluorinated dioxadrol analogues” (Bioorg Med Chem, 2010)

Experiments:
[1] = target: Sigma non-opioid intracellular receptor 1 (Cavia porcellus) (UniProt Q60492); details: at 1 µM
Description: Displacement of [3H](+)-pentazocine from sigma1 opioid receptor from guinea pig brain cortex at 1 uM after 150 mins by scintillation counting

[2] = Displacement of [3H]ditolylguanidine from sigma2 opioid receptor from rat brain cortex after 150 mins by scintillation counting
Sus scrofa = species: Sus scrofa; details: at 1 µM
Description: Displacement of [3H]-(+)-MK801 from PCP binding site of NMDA receptor from pig brain cortex at 1 uM after 150 mins by scintillation counting

[3] = target: Sigma non-opioid intracellular receptor 1 (Cavia porcellus, UniProt Q60492); test: Displacement of [3H](+)-pentazocine from sigma1 opioid receptor from guinea pig brain cortex after 150 mins by scintillation counting
Rattus norvegicus = species: Rattus norvegicus; details: at 1 µM
[4] = Displacement of [3H]-(+)-MK801 from PCP binding site of NMDA receptor from pig brain cortex after 150 mins by scintillation counting; design: species or system Sus scrofa

Sequence of Sigma non-opioid intracellular receptor 1 (Cavia porcellus) (Q60492 whole entry): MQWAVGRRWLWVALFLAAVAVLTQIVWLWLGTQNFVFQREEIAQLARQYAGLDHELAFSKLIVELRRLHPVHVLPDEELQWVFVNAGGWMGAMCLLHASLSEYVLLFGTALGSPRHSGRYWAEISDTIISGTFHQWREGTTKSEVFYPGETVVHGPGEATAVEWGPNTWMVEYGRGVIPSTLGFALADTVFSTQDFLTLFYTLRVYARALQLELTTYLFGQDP
Sequence of Sigma non-opioid intracellular receptor 1 (Q60492 whole entry): as above

Compound | inhibition [1] [%] | Ki [2] [µM] | inhibition (Sus scrofa) [%] | Ki [3] [µM] | inhibition (Rattus norvegicus) [%] | Ki [4] [µM]
FC1(F)CCNC(C2COC(c3ccccc3)(c3ccccc3)O2)C1 (racemic) | 0 | 0.137 | 58 | 0.81 | 17 | 0.081
OC1CCNC(C2COC(c3ccccc3)(c3ccccc3)O2)C1 (racemic) |  |  |  | 0.971 | 13 | 0.044
O=C1CCNC(C2COC(c3ccccc3)(c3ccccc3)O2)C1 (racemic) | 0 |  |  |  |  | 0.47
FC1CCNC(C2COC(c3ccccc3)(c3ccccc3)O2)C1 (racemic; form 1) | 5 |  | 0 |  | 19 | 
FC1CCNC(C2COC(c3ccccc3)(c3ccccc3)O2)C1 (racemic; form 2) [listing 1 of 2 here] |  |  |  |  |  | 0.027
FC1CCNC(C2COC(c3ccccc3)(c3ccccc3)O2)C1 (racemic; form 2) [listing 2 of 2 here] | 5 |  |  |  | 19 | 
CC12CC3CC(C)(C1)CC(N)(C3)C2 [MEMANTINE] |  |  |  |  |  | 1.2
